The numbers were not newly measured in publication PMC2613028, “Discovery of a Non-Peptidic Inhibitor of West Nile Virus NS3 Protease by High-Throughput Docking” (PLoS Neglected Tropical Diseases, 2009), which cites them from elsewhere.

Read-outs that look alike come from different tables or passages of the source.

This data set has as its system WNV protease. Details: method as in PMID 17064076. The settings on record: peptide aldehyde inhibitors.

The term IC50 denotes the concentration at which inhibition is half-maximal. Take “benzoyl-norleucine-lysine-arginine-arginine-aldehyde [Bz-Nle-Lys-Arg-Arg-H]”: the IC50 was 4.1 µM. Also, the half-inhibitory concentration (IC50) (listed as Bz-nKRR-H) is 4 µM.
